We go through 1 compound from patent publication US7524973B2, “Nitrate esters of phenylaminothiophenacetic acid derivatives” (Altana Pharma AG, priority 2003, dated 2009).

Molecules are shown by their SMILES.

For assay [1], the target named is T1, COX-1 (Homo sapiens, UniProt P23219).
T1 construct: Fresh blood was collected into vacutainers containing no anticoagulants; from tissue; host or cells: fresh whole blood without anticoagulant, allowed to clot
The assay is described as follows: In vitro Cox-1 assay (whole blood, TxB2). The class given is cell-based. Particulars: fresh blood without anticoagulant, clotting 1 h at 37° C., TxB2 immunoassay; read-out: Inhibition of COX-1 activity [measured as pIC50] (converted). As to the method:
Fresh blood was collected into vacutainers containing no anticoagulants. Aliquots of 450 μl were immediately transferred to deep well plates preloaded with 1 μl of either DMSO or a test compound at final concentration of 100 μM-10 nM. In addition 50 μl of Hydroxylamine/PBS were added and the tubes were vortexed and incubated at 37° C. for 1 h to allow the blood to clot. At the end of incubation, serum was obtained by centrifugation (2000 g/5 min) and the supernatant was assayed for TxB2 using a immunoassay kit (RD Systems, Germany) according to the manufactures instruction.
(§1) The data were analysed from 2-3 independent dose response curves with a nonlinear estimation program using GRAPHPAD/Prism and given as pIC50

The target in assay [2] is T2, COX-2 (Homo sapiens, UniProt P35354).
T2 construct: Fresh blood was collected in heparinized (8 U/ml, Roche, Switzerland) tubes; from tissue; host or cells: heparinized fresh whole blood stimulated with LPS for 24 h
T2 sequence (P35354 18-604): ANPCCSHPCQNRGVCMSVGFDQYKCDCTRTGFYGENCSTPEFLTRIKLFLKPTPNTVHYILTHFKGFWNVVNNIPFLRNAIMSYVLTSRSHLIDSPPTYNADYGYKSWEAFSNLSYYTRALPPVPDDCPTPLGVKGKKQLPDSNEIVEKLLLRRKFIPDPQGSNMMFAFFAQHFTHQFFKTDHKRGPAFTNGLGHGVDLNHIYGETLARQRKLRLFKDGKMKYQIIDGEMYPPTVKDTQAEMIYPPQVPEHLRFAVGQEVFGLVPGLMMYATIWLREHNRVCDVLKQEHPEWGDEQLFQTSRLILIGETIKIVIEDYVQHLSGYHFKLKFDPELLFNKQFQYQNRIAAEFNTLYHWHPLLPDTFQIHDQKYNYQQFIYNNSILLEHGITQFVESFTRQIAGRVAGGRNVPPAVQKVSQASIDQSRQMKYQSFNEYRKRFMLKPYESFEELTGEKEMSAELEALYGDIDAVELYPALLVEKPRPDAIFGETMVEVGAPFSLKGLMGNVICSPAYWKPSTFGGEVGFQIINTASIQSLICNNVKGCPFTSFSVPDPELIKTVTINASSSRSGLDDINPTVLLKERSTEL
Kind of assay: In vitro Cox-2 assay (LPS-stimulated whole blood, PGE2). The class given is cell-based. Particulars: heparinized blood, LPS 24 h, PGE2 immunoassay; read-out: Inhibition of COX-2 activity [measured as pIC50] (converted). As to the method: Fresh blood was collected in heparinized (8 U/ml, Roche, Switzerland) tubes by venipuncture from both male and female volunteers with consent The subjects had no apparent inflammatory conditions and had not taken any NSAIDs for the last 7 days prior to blood collection. 450 μl aliquots of blood were incubated in deep wells with either 1 μl vehicle (DMSO) or 1 μl of test compound at a final concentration varying from 100 μM-10 nM for 15 min at 37° C. This was followed by incubation of the blood with 50 μl lipopolysaccharide (LPS, Sigma, Germany) 10 μg/ml in 0.1% Hydroxylamine/PBS (Sigma) for 24 h. At the end of incubation the blood was centrifuged at 2000 g for 5 min and […] supernatant was assayed for PGE2 using a immunoassay kit (RD Systems, Germany )
as §1

T1 sequence (P23219 24-599): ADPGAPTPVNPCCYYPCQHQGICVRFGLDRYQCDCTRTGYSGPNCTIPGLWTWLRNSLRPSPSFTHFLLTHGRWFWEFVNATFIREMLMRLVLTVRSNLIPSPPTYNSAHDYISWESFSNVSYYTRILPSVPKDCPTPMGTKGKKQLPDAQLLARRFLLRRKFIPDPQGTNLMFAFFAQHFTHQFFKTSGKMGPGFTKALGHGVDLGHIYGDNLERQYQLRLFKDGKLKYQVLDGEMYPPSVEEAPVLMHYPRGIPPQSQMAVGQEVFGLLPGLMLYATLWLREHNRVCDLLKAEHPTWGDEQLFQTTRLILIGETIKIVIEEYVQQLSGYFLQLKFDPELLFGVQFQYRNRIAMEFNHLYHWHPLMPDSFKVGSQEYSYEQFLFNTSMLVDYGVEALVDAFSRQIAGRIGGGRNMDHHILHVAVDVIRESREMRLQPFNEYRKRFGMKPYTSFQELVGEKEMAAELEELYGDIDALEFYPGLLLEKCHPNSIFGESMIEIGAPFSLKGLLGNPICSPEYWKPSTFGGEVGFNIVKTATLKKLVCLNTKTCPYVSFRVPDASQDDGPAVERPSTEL

`O=C(Cc1cscc1Nc1c(Cl)cccc1Cl)OCCCCO[N+](=O)[O-]` [Compound 1, [4-(2,6-Dichlorophenylamino)-thiophen-3-yl]-acetic acid 4-nitrooxybutyl ester]: the IC50 is 89.1 nM in assay [1] and 72.4 nM in assay [2].
